Structures can show the parent of a compound that is named as a salt.
Assay: Pharmacokinetic tests of bromhexine hydrochloride soluble powder in chickens
Type: in vivo
Settings: oral, soluble powder at 50, 150 and 250 mg/kg·bw
Description: Pharmacokinetic tests of bromhexine hydrochloride soluble powder in chickens were carried out based on three administration dosages of 50 mg/kg·bw, 150 mg/kg·bw and 250 mg/kg·bw.

For `CN(Cc1cc(Br)cc(Br)c1N)C1CCCCC1` [bromhexine, Bromhexine hydrochloride], the pharmacokinetic characteristic was “linear pharmacokinetic characteristic”.

Reference: patent US20220233472A1, “VETERINARY BROMHEXINE HYDROCHLORIDE SOLUBLE POWDER, PREPARATION METHOD AND USE THEREOF” (Qingdao Agricultural University, priority 2021, published 2022)
